Where a name gives a salt, the structure may show the parent alone.
Key:
[1] = Evaluation of a conversion rate to 2-acetylnaphtho[2,3-b]furan-4,9-dione in pH 7.4 phosphate buffer solution; assay type: physicochemical
Experimental: For test compounds, the decrease rate of the test compounds and the conversion rate thereof to 2-acetylnaphtho[2,3-b]furan-4,9-dione in human plasma, CD1 mouse plasma, and pH 7.4 phosphate buffer solution were measured.
Test compounds were incubated at the concentration of 1 umol/L in human plasma (cat. no. 12250210, COSMO BIO), CD1 mouse plasma (cat. no. AP3054, KAC), and phosphate buffer solution at 37° C., and removed at predetermined times (0, 5, 10, 30, 60, and 120 minutes). After protein-removing treatment was performed, they are analyzed with LC-MS. It should be noted that the protein-removing treatment used acetonitrile containing: 10% volume of 1 mol/L hydrochloric acid; 1% volume of 46% citric acid; and phenytoin as an internal standard.
The measurement condition of LC-MS is as described below. LC-MS condition column: Kinetex 2.6 u PFP 100 A 50×2.1 mm Column temperature: 40° C.
Mobile phase: A: 0.1% formic acid-containing water
• B: 0.1% formic acid-containing acetonitrile A/B(min): 95/5(0)→5/95(3)→5/95(4)→95/5(4.1)→95/5(6) Flow rate: 0.4 mL/min Detection: ESI (positive mode) Injection volume: 10 uL
Measurement values are calculated from the peak area ratio in LC-MS between an internal standard material, phenytoin and an active form, 2-acetylnaphtho[2,3-b]furan-4,9-dione, and are expressed in %.
In the same way as Example 6, the incubation time was set as 120 minutes later, and the conversion rate of each of various test compounds to 2-acetylnaphtho[2,3-b]furan-4,9-dione in human plasma, CD1 mouse plasma, and pH 7.4 phosphate buffer solution was measured. A series of the present compounds were confirmed to be converted to 2-acetylnaphtho[2,3-b]furan-4,9-dione in pH 7.4 phosphate buffer solution in addition to human plasma and CD1 mouse plasma. Therefore, a series of the test compounds of the present invention were confirmed to be converted to the activated form via a route other than an enzymatic conversion.

Solubility test = details: for solubility at 24 hours: pH 2, aqueous buffer, thermodynamic from solid; for solubility (in words): pH 2.0 buffer solution
Experimental: A water-soluble prodrug was added into 50 mmol/L glycine buffer solution (pH 2.0). After shaking at room temperature for 24 hours, the mixture was filtered through a membrane filter, and then the filtrate was measured with HPLC.
The measurement condition of HPLC is as described below. HPLC condition column: Acquity UPLC BEH C18, 1.7 um, 50×2.1 mm
Mobile phase: A: 0.1% trifluoroacetic acid-containing water

[2] = Phosphate buffer solution (pH 7.4), 1 umol/L, 37° C., incubation time 120 min, monosulfate salt monohydrate
[3] = Phosphate buffer solution (pH 7.4), 1 umol/L, 37° C., incubation time 120 min
[4] = Phosphate buffer solution (pH 7.4), 1 umol/L, 37° C., incubation time 120 min, trifluoroacetate salt monohydrate
[5] = Phosphate buffer solution (pH 7.4), 1 umol/L, 37° C., incubation time 120 min, monohydrate
[6] = Phosphate buffer solution (pH 7.4), 1 umol/L, 37° C., incubation time 120 min, dimethanesulfonate salt monohydrate

CC(=O)c1cc2c(OC(=O)NCCNCC(=O)O)c3ccccc3c(OC(=O)NCCNCC(=O)O)c2o1 [Example 97, 2,2′-((((((2-acetylnaphtho[2,3-b]furan-4,9-diyl)bis(oxy))bis(carbonyl))bis-(azanediyl))bis(ethane-2,1-diyl))bis(azanediyl))diacetic acid monosulfate salt monohydrate]
% Measurement value (conversion rate to 2-acetylnaphtho[2,3-b]furan-4,9-dione) [1, 2]: 61%

CC(=O)c1cc2c(OC(=O)NCCCN)c3ccccc3c(O)c2o1.Cl [Example 15, 2-Acetyl-9-hydroxynaphtho[2,3-b]furan-4-yl (3-aminopropyl)carbamate hydrochloride]
% Measurement value (conversion rate to 2-acetylnaphtho[2,3-b]furan-4,9-dione) [1, 3]: 100%

CC(=O)c1cc2c(OC(=O)C(C)(C)C)c3ccccc3c(OC(=O)C(C)(C)C)c2o1 [2-acetylnaphtho[2,3-b]furan-4,9-diyl bis(2,2-dimethylpropanoate), reference compound]
solubility at 24 hours (Solubility test; glycine buffer solution): < 0.1 µg/mL | solubility (in words) (Solubility test): very low solubility

CCCCCCCC(=O)Oc1c2ccccc2c(OC(=O)CCCCCCC)c2oc(C(C)=O)cc12 [2-acetylnaphtho[2,3-b]furan-4,9-diyl dioctanoate, reference compound]
solubility at 24 hours (Solubility test; glycine buffer solution): < 0.1 µg/mL | solubility (in words) (Solubility test): very low solubility

CC(=O)c1cc2c(OC(=O)NCCNCC(=O)O)c3ccccc3c(OC(=O)NCCNCC(=O)O)c2o1 [Example 98, 2,2′-((((((2-acetylnaphtho[2,3-b]furan-4,9-diyl)bis(oxy))bis(carbonyl))bis(azanediyl))bis(ethane-2,1-diyl))bis(azanediyl))diacetic acid 1/3 trifluoroacetate salt monohydrate]
solubility at 24 hours (Solubility test): > 5000 µg/mL | % Measurement value (conversion rate to 2-acetylnaphtho[2,3-b]furan-4,9-dione) [1, 4]: 66%

CC(=O)c1cc2c(OC(=O)NCCNCCC(=O)O)c3ccccc3c(OC(=O)NCCNCCC(=O)O)c2o1 [Example 100, 3,3′-((((((2-acetylnaphtho[2,3-b]furan-4,9-diyl)bis(oxy))bis(carbonyl))bis(azanediyl))bis(ethane-2,1-diyl))bis(azanediyl))dipropionic acid ditoluenesulfonate salt monohydrate]
% Measurement value (conversion rate to 2-acetylnaphtho[2,3-b]furan-4,9-dione) [1, 5]: 76%

CC(=O)c1cc2c(OC(=O)NCCCN)c3ccccc3c(OC(=O)NCCCN)c2o1 [Example 1, 2-Acetylnaphtho[2,3-b]furan-4,9-diyl bis((3-aminopropyl)carbamate)dihydrochloride]
% Measurement value (conversion rate to 2-acetylnaphtho[2,3-b]furan-4,9-dione) [1, 3]: 79%

CC(=O)c1cc2c(OC(=O)NCCNCCC(=O)O)c3ccccc3c(O)c2o1 [Example 17, 3-((2-((((2-Acetyl-9-hydroxynaphtho[2,3-b]furan-4-yl)oxy)carbonyl)amino)ethyl)amino)prop ionic acid hydrochloride]
% Measurement value (conversion rate to 2-acetylnaphtho[2,3-b]furan-4,9-dione) [1, 3]: 80%

CC(=O)c1cc2c(OC(=O)NCCNCC(F)F)c3ccccc3c(OC(=O)NCCNCC(F)F)c2o1.Cl.Cl [Example 44]
% Measurement value (conversion rate to 2-acetylnaphtho[2,3-b]furan-4,9-dione) ([1]; pH 7.4): 48%

CC(=O)c1cc2c(OC(=O)NCCNCCC(=O)O)c3ccccc3c(OC(=O)NCCNCCC(=O)O)c2o1 [Example 103, 3,3′-((((((2-acetylnaphtho[2,3-b]furan-4,9-diyl)bis(oxy))bis(carbonyl))bis(azanediyl))bis(ethane-2,1-diyl))bis(azanediyl))dipropionic acid 1/3 trifluoroacetate salt monohydrate]
% Measurement value (conversion rate to 2-acetylnaphtho[2,3-b]furan-4,9-dione) [1, 4]: 53%

CC(=O)c1cc2c(O)c3ccccc3c(OC(=O)NCCCN)c2o1.Cl [Example 20, 2-Acetyl-4-hydroxynaphtho[2,3-b]furan-9-yl (3-aminopropyl)carbamate hydrochloride]
% Measurement value (conversion rate to 2-acetylnaphtho[2,3-b]furan-4,9-dione) [1, 3]: 57%

COC(=O)[C@@H](N)CCNC(=O)Oc1c2ccccc2c(OC(=O)NCC[C@H](N)C(=O)OC)c2oc(C(C)=O)cc12 [Example 105, Dimethyl 4,4′-((((2-acetylnaphtho[2,3-b]furan-4,9-diyl)bis(oxy))bis(carbonyl))bis(azanediyl))(2S,2′S)-bis(2-aminobutanoate)ditoluenesulfonate salt monohydrate]
solubility at 24 hours (Solubility test): > 5000 µg/mL | % Measurement value (conversion rate to 2-acetylnaphtho[2,3-b]furan-4,9-dione) [1, 5]: 65%

CC(=O)c1cc2c(OC(=O)NCCN)c3ccccc3c(OC(=O)NCCN)c2o1 [Example 2, 2-Acetylnaphtho[2,3-b]furan-4,9-diyl bis((2-aminoethyl)carbamate)dihydrochloride]
% Measurement value (conversion rate to 2-acetylnaphtho[2,3-b]furan-4,9-dione) [1, 3]: 59%

CC(=O)c1cc2c(OC(=O)NCCNCC(=O)O)c3ccccc3c(OC(=O)NCCNCC(=O)O)c2o1 [Example 94, 2,2′-((((((2-acetylnaphtho[2,3-b]furan-4,9-diyl)bis(oxy))bis(carbonyl))bis-(azanediyl))bis(ethane-2,1-diyl))bis(azanediyl))diacetic acid dimethanesulfonate salt monohydrate]
% Measurement value (conversion rate to 2-acetylnaphtho[2,3-b]furan-4,9-dione) [1, 6]: 53%

CC(=O)c1cc2c(OC(=O)NCCNCCC(=O)O)c3ccccc3c(OC(=O)NCCNCCC(=O)O)c2o1 [Example 102, 3,3′-((((((2-acetylnaphtho[2,3-b]furan-4,9-diyl)bis(oxy))bis(carbonyl))bis-(azanediyl))bis(ethane-2,1-diyl))bis(azanediyl))dipropionic acid monosulfate salt monohydrate]
% Measurement value (conversion rate to 2-acetylnaphtho[2,3-b]furan-4,9-dione) [1, 2]: 59%

CN[C@@H](CCNC(=O)Oc1c2ccccc2c(OC(=O)NCC[C@@H](NC)C(=O)O)c2cc(C(C)=O)oc12)C(=O)O [Example 3, (S)-4-((((2-Acetyl-4-((((R)-3-carboxy-3-(methylamino)propyl)carbamoyl)oxy)naphtho[2,3-b]furan-9-yl)oxy)carbonyl)amino)-2-(methylamino)butanoic acid dihydrochloride]
% Measurement value (conversion rate to 2-acetylnaphtho[2,3-b]furan-4,9-dione) [1, 3]: 40%

COC(=O)[C@@H](N)CCNC(=O)Oc1c2ccccc2c(OC(=O)NCC[C@H](N)C(=O)OC)c2oc(C(C)=O)cc12 [Example 107, Dimethyl 4,4′-((((2-acetylnaphtho[2,3-b]furan-4,9-diyl)bis(oxy))bis(carbonyl))bis(azanediyl))(2S,2′S)-bis(2-aminobutanoate) monosulfate salt monohydrate]
% Measurement value (conversion rate to 2-acetylnaphtho[2,3-b]furan-4,9-dione) [1, 2]: 50%

CC(=O)c1cc2c(OC(=O)NCCNCCC(=O)O)c3ccccc3c(OC(=O)NCCNCCC(=O)O)c2o1 [Example 99, 3,3′-((((((2-acetylnaphtho[2,3-b]furan-4,9-diyl)bis(oxy))bis(carbonyl))bis(azanediyl))bis(ethane-2,1-diyl))bis(azanediyl))dipropionic acid dimethanesulfonate salt monohydrate]
% Measurement value (conversion rate to 2-acetylnaphtho[2,3-b]furan-4,9-dione) [1, 6]: 60%

CC(=O)c1cc2c(OC(=O)NCCNCC(=O)O)c3ccccc3c(OC(=O)NCCNCC(=O)O)c2o1 [Example 95, 2,2′-((((((2-acetylnaphtho[2,3-b]furan-4,9-diyl)bis(oxy))bis(carbonyl))bis(azanediyl))bis(ethane-2,1-diyl))bis(azanediyl))diacetic acid ditoluenesulfonate salt monohydrate]
% Measurement value (conversion rate to 2-acetylnaphtho[2,3-b]furan-4,9-dione) [1, 5]: 54%

CC(=O)c1cc2c(OC(=O)NCCNCCC(=O)O)c3ccccc3c(OC(=O)NCCNCCC(=O)O)c2o1 [Example 101, 3,3′-((((((2-acetylnaphtho[2,3-b]furan-4,9-diyl)bis(oxy))bis(carbonyl))bis(azanediyl))bis(ethane-2,1-diyl))bis(azanediyl))dipropionic acid dibenzenesulfonate salt]
% Measurement value (conversion rate to 2-acetylnaphtho[2,3-b]furan-4,9-dione) ([1]; Phosphate buffer solution (pH 7.4), 1 umol/L, 37° C., incubation time 120 min, dibenzenesulfonate salt): 56%

CC(=O)c1cc2c(OC(=O)NCCNCC(=O)O)c3ccccc3c(OC(=O)NCCNCC(=O)O)c2o1 [Example 93, 2,2′-((((((2-acetylnaphtho[2,3-b]furan-4,9-diyl)bis(oxy))bis(carbonyl))bis(azanediyl))bis(ethane-2,1-diyl))bis(azanediyl))diacetic acid monohydrochloride dihydrate]
% Measurement value (conversion rate to 2-acetylnaphtho[2,3-b]furan-4,9-dione) ([1]; Phosphate buffer solution (pH 7.4), 1 umol/L, 37° C., incubation time 120 min, monohydrochloride dihydrate): 72%
